Test results from patent US20240207454A1, “NEURO-BEHAVIORAL ASSAY FOR PHYSIOLOGICAL EVALUATION OF WATER-SOLUBLE ANESTHETICS” (Northeastern University, priority 2022, published 2024).
Read-outs that look alike come from different tables or passages of the source.

What was measured:
[1] = tested on: Apteronotus leptorhynchus; assay: Neuro-behavioral assay: chirps (EOD modulations); assay type: in vivo; details: 1 μM to 60 μM, exposure times of up to 48 hours; negative control
[2] = tested on: Apteronotus leptorhynchus; assay: Neuro-behavioral assay: effect on EOD frequency; assay type: in vivo; details: 1 μM to 60 μM, exposure times of up to 48 hours; negative control
[3] = tested on: Apteronotus leptorhynchus; assay: Neuro-behavioral assay: locomotor activity and induction of anesthesia; assay type: in vivo; details: 1 μM to 60 μM, exposure times of up to 48 hours; negative control
[4] = tested on: Mauthner cell; details: cited from earlier work

NC12CC3CC(CC(C3)C1)C2 [Amantadine]
Effect on EOD modulations [1]: no effects
Effect on EOD frequency [2]: no effects
Effect on locomotor activity [3]: no effects

CC=Cc1ccc(O)c(OC)c1 [isoeugenol]
Effect on generation and propagation of action potentials ([4]; 10 mg/L and 20 mg/L, exposure for more than 1 hour): No effect
Effect on generation and propagation of action potentials ([4]; 40 mg/L, after 10-30 min): slight decrease in the slope of action potentials
Effect on generation and propagation of action potentials ([4]; 60 mg/L, exposure for at least 10-30 min): additional aspects of the action potential were affected
